Laboratory results reported in article PMC8151276, “An Integrated Approach toward NanoBRET Tracers for Analysis of GPCR Ligand Engagement” (Molecules, 2021).

Assays:
TACR2 = biological target: T1, TACR2 (Homo sapiens, UniProt P21452); assay: NanoBRET screen HiBiT-TACR2 in HEK293; format: binding
T1 construct: purchased Promega (in-house HiBiT-GPCR construct library, NanoBRET)
T1 sequence (P21452 1-398): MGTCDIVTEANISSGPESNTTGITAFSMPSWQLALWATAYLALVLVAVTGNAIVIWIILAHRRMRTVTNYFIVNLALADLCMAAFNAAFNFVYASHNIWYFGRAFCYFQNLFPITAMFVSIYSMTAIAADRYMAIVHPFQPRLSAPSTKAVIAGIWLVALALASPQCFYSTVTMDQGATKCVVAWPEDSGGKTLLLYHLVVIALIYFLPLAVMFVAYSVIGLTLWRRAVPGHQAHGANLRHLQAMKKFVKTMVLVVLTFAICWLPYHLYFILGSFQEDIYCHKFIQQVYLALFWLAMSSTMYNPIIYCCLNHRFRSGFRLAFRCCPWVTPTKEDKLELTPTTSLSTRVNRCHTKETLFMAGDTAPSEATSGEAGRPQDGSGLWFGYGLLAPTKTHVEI
Experimental: (§1) Each tracer candidate was screened across the entire library of HiBiT-GPCR constructs using NanoBRET as the detection modality. As depicted in Figure 4A, the specificity of interactions was evaluated through decrease in BRET due to competitive displacement of a bound tracer by excess parental compound. Each tracer was analyzed for binding to each HiBiT-GPCR fusion in the absence and in the presence of competing parental compound. Briefly, HEK293 cells were transfected with HiBiT-GPCR constructs diluted into promoterless DNA to reduce expression and maximize translocation to the cell surface. Each tracer candidate was then screened at concentrations of 1 μM and 0.1 μM across cells expressing these fusions. Cells were treated for 1.5 h with tracer either alone or in the presence of 20 μM competing parental compound (i.e., control). BRET was measured upon addition of purified LgBiT and subsequent complementation with HiBiT genetically fused to a GPCR. The specificity of interactions was assessed through a decrease in BRET signal due to competitive displacement of the bound tracer. To further gauge the robustness of these interactions, the fold response over the control (i.e., BRETtracer/BRETcontrol) was calculated. We chose a 1.5-fold response, which translates to ≥7-fold signal over noise as the minimal threshold required to score an interaction as positive. […]. Below we highlight the screening results obtained for our exemplary fluorescent tracers based on Clozapine, Amitriptyline and AZD1283.
(§2) HiBiT-GPCR DNA constructs were diluted in 10 mM Tris pH 8 to a final concentration of 0.01 μg/μL, arrayed in 96-well plates and stored at −20 °C. For transfection, HEK293 cells were suspended in Opti-MEM (without phenol red) supplemented with 2% fetal bovine serum (Seradigm) and 100 units/mL penicillin–streptomycin (Gibco) at a final concentration of 220,000 cells/mL and dispensed into white 96-well plates at 90 μL/well. Subsequent transfections and screens were carried using an Agilent Bravo Automated Liquid Handling Platform. First, the 96-well HiBiT DNA arrays were diluted 25-fold in Opti-MEM (without serum or phenol red) to a final concentration of 0.0004 μg/μL and 20 μL of the diluted DNAs were transferred into new 96-well plates. Next, promoterless carrier DNA (1 μg/μL) was diluted 25-fold (0.04 μg/μL) and then dispensed into the diluted arrays at 20 μL/well. Following brief mixing, Viafect transfection reagent (Promega) diluted 16-fold into Opti-MEM was dispensed into the plates at 40 μL/well. After mixing by pipetting, plates were incubated for 10 min on the pipetting station deck. The DNA-transfection reagent complexes were then added to plates containing cells. To facilitate the screen, 10 μL of DNA-transfection reagent complexes were added in duplicates to the top 4 and bottom 4 rows, resulting in two identical 48-well arrays per plate. Plates with transfected cells were incubated for 18–20 h at 37 °C/5% CO2. A screen of each tracer across the entire library using two different concentrations requires duplicate plates of transfected cells. Depending on the number of tracers being screened, transfections can be scaled up using the same ratios. The next day, for each tracer, four 20× screening solutions in tracer dilution buffer (Promega) were prepared: two duplicates at final concentration of 20 μM and two duplicates at a final concentration of 2 μM. A competing unmodified compound was added to one of each duplicate at a final concentration of 400 μM. The four resulting solutions were diluted 4-fold in Opti-MEM without serum or phenol red to generate 5× solutions (5 µM and 0.5 µM tracer +/− 100 μM competing compound). To screen the library, a BioTek MultiFlo FX liquid dispenser was used to dispense 22.5 µL of tracer solution to the top 4 rows and 22.5 µL tracer + competing compound solution to the 4 bottom rows. Plates were briefly mixed on an orbital shaker and incubated for 1.5 h at room temperature. […]

CXCR6 = biological target: T2, CXCR6 (Homo sapiens, UniProt O00574); assay: NanoBRET screen HiBiT-CXCR6 in HEK293; format: binding
T2 construct: purchased Promega (in-house HiBiT-GPCR construct library, NanoBRET)
T2 sequence (O00574 whole entry): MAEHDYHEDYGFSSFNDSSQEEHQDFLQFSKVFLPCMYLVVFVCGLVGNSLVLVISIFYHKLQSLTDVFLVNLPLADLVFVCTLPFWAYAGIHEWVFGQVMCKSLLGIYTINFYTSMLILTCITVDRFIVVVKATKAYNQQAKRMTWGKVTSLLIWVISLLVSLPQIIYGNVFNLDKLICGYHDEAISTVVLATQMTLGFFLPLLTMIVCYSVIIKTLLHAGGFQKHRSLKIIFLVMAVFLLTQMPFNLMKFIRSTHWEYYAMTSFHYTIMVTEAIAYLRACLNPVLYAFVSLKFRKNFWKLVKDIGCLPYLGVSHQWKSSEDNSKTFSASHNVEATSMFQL
Experimental: as §1, §2

[1] = tracer at 0.1μM, listed as amitriptyline-b-2-NB590
[2] = tracer at 1μM, listed as amitriptyline-b-2-NB590

With CCOC(=O)c1cc(C#N)c(N2CCC(C(=O)NS(=O)(=O)Cc3ccccc3/C=C/C(=O)NCCNC(=O)CCc3ccc4n3[B-](F)(F)[N+]3=C(c5ccc[nH]5)C=CC3=C4)CC2)nc1C [AZD1283-1-NB590] the “NanoBRET Fold Response” value (TACR2; TACR2, 0.1μM) was 1.09, the “NanoBRET Fold Response” value (TACR2; TACR2, 1μM) was 1.04 and the “NanoBRET Fold Response” value (CXCR6; CXCR6, 0.1μM) was 0.89. The “NanoBRET Fold Response” value (CXCR6; CXCR6, 1μM) was 0.29.
In the case of N#CN=C(NCCCOc1cccc(CN2CCCCC2)c1)NCCNC(=O)CCOCCOCCOCCOCCNC(=O)CCc1ccc2n1[B-](F)(F)[N+]1=C(c3ccc[nH]3)C=CC1=C2 [Aminopotentidine-2-NB590], the “NanoBRET Fold Response” value (TACR2; TACR2, tracer 0.1μM) is reported as 0.98, the “NanoBRET Fold Response” value (TACR2; TACR2, tracer 1μM) is reported as 1.02 and the “NanoBRET Fold Response” value (CXCR6; CXCR6, tracer 0.1μM) is reported as 1.06. For the same compound, the “NanoBRET Fold Response” value (CXCR6; CXCR6, tracer 1μM) was 1.03.
In the case of CN(C)CCC=C1c2ccccc2CCc2ccc(C(=O)NCCNC(=O)CCOCCOCCOCCOCCNC(=O)CCc3ccc4n3[B-](F)(F)[N+]3=C(c5ccc[nH]5)C=CC3=C4)cc21 [Amitriptyline-a-2-NB590], the “NanoBRET Fold Response” value (TACR2; tracer at 0.1μM) is reported as 1.10, the “NanoBRET Fold Response” value (TACR2; tracer at 1μM) is reported as 1.13 and the “NanoBRET Fold Response” value (CXCR6; tracer at 0.1μM) is reported as 1.07. For the same compound, the “NanoBRET Fold Response” value (CXCR6; tracer at 1μM) was 0.94.
For CN(C)CCC=C1c2ccccc2CCc2ccc(C(=O)NCCNC(=O)CCOCCOCCOCCOCCNC(=O)CCc3ccc4n3[B-](F)(F)[N+]3=C(c5ccc[nH]5)C=CC3=C4)cc21 [Amitriptyline-b-2-NB590], the “NanoBRET Fold Response” value (TACR2; [1]) was 0.86, the “NanoBRET Fold Response” value (TACR2; [2]) was 1.17 and the “NanoBRET Fold Response” value (CXCR6; [1]) was 0.95. The “NanoBRET Fold Response” value (CXCR6; [2]) was 1.02.
With CN(CCC=C1c2ccccc2CCc2ccccc21)C(=O)CCOCCOCCOCCOCCNC(=O)CCc1ccc2n1[B-](F)(F)[N+]1=C(c3ccc[nH]3)C=CC1=C2 [Amitriptyline-e-2-NB590] the “NanoBRET Fold Response” value (CXCR6; tracer at 1μM) was 0.98.
In the case of COc1ccc2c(n1)c(CCNC(C)=O)cn2CCNC(=O)CCc1ccc2n1[B-](F)(F)[N+]1=C(c3ccc[nH]3)C=CC1=C2 [Azamelatonin-1-NB590], the “NanoBRET Fold Response” value (TACR2; 0.1μM tracer) is reported as 0.81, the “NanoBRET Fold Response” value (TACR2; 1μM tracer) is reported as 0.91 and the “NanoBRET Fold Response” value (CXCR6; 0.1μM tracer) is reported as 1.07. The “NanoBRET Fold Response” value (CXCR6; 1μM tracer) was 0.89.
For COc1ccc2[nH]c(-c3ccc(CNC(=O)CCOCCOCCOCCOCCNC(=O)CCc4ccc5n4[B-](F)(F)[N+]4=C(c6ccc[nH]6)C=CC4=C5)cc3)c(CCNC(C)=O)c2n1 [AzomelatoninICO9-2-NB590], the “NanoBRET Fold Response” value (TACR2; 0.1μM tracer) was 0.37, the “NanoBRET Fold Response” value (TACR2; 1μM tracer) was 0.84 and the “NanoBRET Fold Response” value (CXCR6; 0.1μM tracer) was 0.98. The “NanoBRET Fold Response” value (CXCR6; 1μM tracer) was 1.16.
With O=C(CCOCCOCCOCCOCCNC(=O)CCc1ccc2n1[B-](F)(F)[N+]1=C(c3ccc[nH]3)C=CC1=C2)NCCCN1CCN(C2=Nc3cc(Cl)ccc3Nc3ccccc32)CC1 [Clozapine-a-2-NB590] the “NanoBRET Fold Response” value (TACR2; TACR2, 0.1μM tracer) was 1.02, the “NanoBRET Fold Response” value (TACR2; TACR2, 1μM tracer) was 0.89 and the “NanoBRET Fold Response” value (CXCR6; CXCR6, 0.1μM tracer) was 0.98. For the same compound, the “NanoBRET Fold Response” value (CXCR6; CXCR6, 1μM tracer) was 1.08.
With CN1CCN(C2=Nc3cc(Cl)ccc3Nc3ccc(CNC(=O)CCOCCOCCOCCOCCNC(=O)CCc4ccc5n4[B-](F)(F)[N+]4=C(c6ccc[nH]6)C=CC4=C5)cc32)CC1 [Clozapine-b-2-NB590] the “NanoBRET Fold Response” value (TACR2; TACR2, 0.1μM tracer) was 0.97, the “NanoBRET Fold Response” value (CXCR6; CXCR6, 0.1μM tracer) was 1.01 and the “NanoBRET Fold Response” value (CXCR6; CXCR6, 1μM tracer) was 1.00.
With CN1CCN(C2=Nc3cc(Cl)ccc3N(CC(=O)NCCOCCOCCOCCOCCNC(=O)CCc3ccc4n3[B-](F)(F)[N+]3=C(c5ccc[nH]5)C=CC3=C4)c3ccccc32)CC1 [Clozapine-c-2-NB590] the “NanoBRET Fold Response” value (TACR2; TACR2, 0.1μM tracer) was 0.93, the “NanoBRET Fold Response” value (TACR2; TACR2, 1μM tracer) was 0.88 and the “NanoBRET Fold Response” value (CXCR6; CXCR6, 0.1μM tracer) was 1.01. The “NanoBRET Fold Response” value (CXCR6; CXCR6, 1μM tracer) was 1.04.
O=C(CCOCCOCCOCCOCCNC(=O)CCc1ccc2n1[B-](F)(F)[N+]1=C(c3ccc[nH]3)C=CC1=C2)NCCCN1CCN(C2=Nc3ccccc3Oc3ccc(Cl)cc32)CC1 [Loxapine-a-2-NB590] was tested, and the “NanoBRET Fold Response” value (TACR2; TACR2, tracer 0.1μM) was 0.86, the “NanoBRET Fold Response” value (TACR2; TACR2, tracer 1μM) was 0.64 and the “NanoBRET Fold Response” value (CXCR6; CXCR6, tracer 0.1μM) was 1.00. For the same compound, the “NanoBRET Fold Response” value (CXCR6; CXCR6, tracer 1μM) was 1.01.
For COc1ccccc1N1CCN(CCCCN2C(=O)c3ccc(CNC(=O)CCOCCOCCOCCOCCNC(=O)CCc4ccc5n4[B-](F)(F)[N+]4=C(c6ccc[nH]6)C=CC4=C5)cc3C2=O)CC1 [NAN-190-2-NB590], the “NanoBRET Fold Response” value (TACR2; TACR2, tracer 0.1μM) was 0.88, the “NanoBRET Fold Response” value (TACR2; TACR2, tracer 1μM) was 1.04 and the “NanoBRET Fold Response” value (CXCR6; CXCR6, tracer 0.1μM) was 0.94. For the same compound, the “NanoBRET Fold Response” value (CXCR6; CXCR6, tracer 1μM) was 1.02.
